Assays:
[1] = Drug concentration in plasma of mice of the B cell activation study; assay type: in vivo; conditions: C57BL/6, plasma; mouse, 5 mg/kg oral, 16 h after administration
Procedure: The animals of each group were administered, then were placed in CO2 for anesthesia at designated time points, blood samples were taken from […] via retro-orbital bleeding, and heparin was used for anticoagulation; 90 μL of whole blood was taken from mice of each group, and added to a 96 well culture plate, and anti-mouse IgD antibody (BIO-RAD, Cat #MCA4693) was added to each well to a final concentration of 0.01 μg/μL (respectively for each drug-treated group and anti-IgD antibody-inducted vehicle group); in addition, 90 μL of whole blood of mice in the vehicle group was taken and added to the 96-well culture plate, and PBS (phosphate buffer, GIBCO, Cat # C20012500BT) was added to each well to a final concentration of 0.01 μg/μL (namely, the vehicle control group); Each group was mixed well and incubated in a 37° C./5% CO2 incubator for 4 hours. In addition, the blood of mice in the drug-treated group was centrifuged to separate plasma for blood concentration analysis.

[2] = tested on: ITP mice (anti-mouse CD41 antibodies); test: Idiopathic thrombocytopenic purpura induced by anti-CD41 antibody in mice; assay type: in vivo; conditions: 8 hours after modeling, single oral dose
Procedure: Male C57BL/6 mice were purchased from Shanghai Lingchang Biotechnology Co., Ltd. (certificate number 20180003011079, initial body weight of 18-20 grams), and were randomly grouped according to Table 4, with 8 mice in each group. […] When modeling, each mouse was intraperitoneally injected with 200 μL of PBS solution containing 2 μg of anti-mouse CD41 antibodies (BD, Cat #: 553487, Lot #: 7026765).
Eight hours and twenty-four hours after modeling, the whole blood was collected and placed in a centrifuge tube coated with 10% citrate-phosphate-dextrose-adenine (CPDA), and the level of platelets (PLT) in the whole blood was measured by an XT-2000i (SYSMEX) automatic blood analyzer (Shanghai Laboratory Animal Research Centre Sino-British SIPPR/B & K Lab Animal Ltd).
The average level of platelets in peripheral blood was analyzed with Graphpad statistical software by one way ANOVA followed by Fisher LSD multiple comparison test, and the p value was calculated, wherein *p<0.05 indicated a statistically significant difference compared with the vehicle control group, **p<0.01 indicated a statistically extremely significant difference compared with the vehicle control group, and ##p<0.01 indicated a statistically extremely significant difference compared with the normal group. […]

[3] = biological target: Phosphorylated BTK in Ramos cells (Homo sapiens (Human), UniProt Q06187); test: Determination of phosphorylated BTK in Ramos cells (BTK phospho-Y223 HTRF); assay type: cell-based; conditions: Ramos cells stimulated with immunoglobulin M 10 μg/mL and hydrogen peroxide 3.3 mM, 10 minutes
Sequence of Phosphorylated BTK in Ramos cells (Q06187 whole entry): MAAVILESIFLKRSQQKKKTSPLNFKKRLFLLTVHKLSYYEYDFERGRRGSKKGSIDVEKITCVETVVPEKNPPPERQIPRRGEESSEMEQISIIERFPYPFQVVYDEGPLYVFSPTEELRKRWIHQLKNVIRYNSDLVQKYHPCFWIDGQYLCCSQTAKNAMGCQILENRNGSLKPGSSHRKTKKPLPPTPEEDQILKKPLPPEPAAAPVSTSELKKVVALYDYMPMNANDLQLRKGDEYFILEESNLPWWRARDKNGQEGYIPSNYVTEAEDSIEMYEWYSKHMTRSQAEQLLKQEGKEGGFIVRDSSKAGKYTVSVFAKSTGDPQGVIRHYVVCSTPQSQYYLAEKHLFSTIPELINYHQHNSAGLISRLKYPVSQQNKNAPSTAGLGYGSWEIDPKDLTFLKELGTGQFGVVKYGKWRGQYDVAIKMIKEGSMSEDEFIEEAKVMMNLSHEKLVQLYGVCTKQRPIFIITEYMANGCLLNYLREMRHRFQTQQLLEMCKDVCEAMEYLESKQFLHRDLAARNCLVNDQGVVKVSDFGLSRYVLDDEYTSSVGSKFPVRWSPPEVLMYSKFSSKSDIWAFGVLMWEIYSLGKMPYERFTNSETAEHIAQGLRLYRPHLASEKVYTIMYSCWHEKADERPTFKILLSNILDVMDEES
Procedure: Ramos cells were starved in PRMI 1640 medium with 1% FBS for 2 hours. The starved Ramos cells were diluted with Hank's balanced salt solution to 5.0×10^6 cells/ml, seeded in a 96-well plate with 20 μL/well (1.0×10^5 cells/well), and cultured in a 5% CO2, 37° C. cell incubator. […]
The 384 well plate incubated overnight in the constant temperature incubator was taken out to detect the luminescence signal using the Envision microwell plate reader at the […]. The reading value at 665 nm/615 nm of each well multiplied by 10^4 was used as the signal value of each well.
The average signal value of the wells supplemented with the mixed solution of human immunoglobulin M (final concentration was 10 μg/mL) and hydrogen peroxide (final concentration was 3.3 mM) without the test compound was regarded as the high value, and the average signal value of the wells without immunoglobulin M stimulation and without the test compound was regarded as the low value. According to the signal value in each well, the inhibition ratio (%) of each concentration of compounds was calculated, and the 205 model in XL-Fit 5.3 software (ID Business Solutions Limited) was used to obtain an IC50 value.
The inhibition ratio is calculated as follows: inhibition ratio (%)=100%−{(treating well for the test compound−negative control treating well)/(control treating well for anti-human immunoglobulin M−negative control treating well)}×100%, wherein, […]

C[C@H]1CN(C2COC2)C[C@H](C)N1c1ccc(Nc2cc(-c3ccnc(-n4ccn5c6c(cc5c4=O)CC(C)(C)C6)c3CO)cn(C)c2=O)nc1 [Compound 1, 2-(5-((5-((2S,6S)-2,6-dimethyl-4-(oxetan-3-yl)piperazin-1-yl)pyridin-2-yl)amino)-3′-(hydroxymethyl)-1-methyl-6-oxo-1,6-dihydro-[3,4′-bipyridin]-2′-yl)-7,7-dimethyl-7,8-dihydro-2H-cyclopenta[4,5]pyrrolo[1,2-a]pyrazin-1(6H)-one]
concentration at 16 h [1]: 6.27 ± 1.68 ng/mL | minimum effective dose [2]: 0.04 mg/kg | IC50 [3]: 5 nM
